Test results: patent US12557817B2, “Bioactive peptides having detrimental effects on pest slugs” (priority 2019, dated 2026)

Columns and labels:
gray garden slugs [1] = assay: Mortality after peptide injection into slugs; assay type: in vivo, Deroceras reticulatum; settings: 100 nmol injected
Procedure: The gray garden slugs utilized herein (Deroceras reticulatum) were collected in Corvallis, Oregon, USA, and maintained with carrot and lettuce in a controlled incubator (13° C., 90% RH, 14: 10=light:dark, dim light). To test their effects on slugs, 100 nmol of each of the peptides (SEQ ID NO: 1, SEQ ID NO: 3, SEQ ID NO: 19, SEQ ID NO: 25 and SEQ ID NO: 26) was dissolved in 5 μL of purified water (100 nmol) and injected into 10 gray garden slugs per each treatment. Under dry conditions, after 24 h the slug mortalities observed were 40% with SEQ ID NO: 1, 70% with SEQ ID NO: 3, 90% with SEQ ID NO: 19, 70% with SEQ ID NO: 25, and 70% with SEQ ID NO: 26. […] Under wet conditions, the slug mortalities observed within 24 h were 40% with SEQ ID NO: 19, 40% with SEQ ID NO: 25, and 30% with SEQ ID NO: 26.

gray garden slugs [2] = assay: Anti-feeding on peptide-treated lettuce leaf; assay type: in vivo, Deroceras reticulatum; settings: lettuce treated with 200 nmol peptide
Procedure: The gray garden slugs utilized herein (Deroceras reticulatum) were collected in Corvallis, Oregon, USA, and maintained with carrot and lettuce in a controlled incubator (13° C., 90% RH, 14: 10=light:dark, dim light). To test for the effect of the peptides on feeding, slugs were fed a diet of lettuce leaf tissues treated with water alone or with 200 nmol of individual peptides (SEQ ID NO: 19, SEQ ID NO: 25, and SEQ ID NO: 26) dissolved in 10 μL water (FIG. 8). Ten gray garden slugs were used for each treatment and each treatment was replicated three times.

[3] = test system: two slug GPCRs (receptor A and B) expressed in the Sf9 insect cell line; assay: Binding assay with peptides: calcium fluorescence (FLIPR Calcium 6) in Sf9 cells expressing slug GPCRs; assay type: cell-based, Deroceras reticulatum; settings: for binding activity / activation of the receptors: alanine-substituted or N-terminally reduced peptides of SEQ ID NO: 3, FIG. 5; for EC50: Sf9 cells expressing receptor A or receptor B, receptor not given
Source text: The open reading frames (ORFs) of D. reticulatum GPCRs were inserted into a pIB/V5-His TOPO® TA expression vector (Thermo Fisher Scientific) to be expressed in Sf9 cells as described previously (Choi et al., Gen. Comp. Endocrinol., (2017) 246:354-62). To add a Kozak sequence (G/ANNATGG) in the translation initiation the ORFs of D. reticulatum GPCRs were amplified using specific primer sets. The sequences of two different ORFs of D. reticulatum GPCRs were confirmed after insertion into the expression vector.
Small synthetic peptides derived from the PRXamide family members identified from the gray garden slug and insects (Table 1), were tested to determine their binding activities to two slug GPCRs (receptor A and B) expressed in the Sf9 insect cell line. All peptide ligands of SEQ ID NOs: 1-16 and 19-28, as well as the “RY” dipeptide and “PRY” tripeptide (purity >95%) were synthesized from Peptide 2.0 (Chantily, VA, USA). Sf9 cells were cultured as described previously (Choi et al., supra). About 50,000 cells per well in a 96-well plate (Corning C3603) were incubated at 28° C. overnight. At 48 h, cells were rinsed with 100 μL of fresh medium without fetal bovine serum (FBS). Then, cells were incubated in 95 μL of 1×FLIPR Calcium 6 reagent (Molecular Devices, San Jose, CA, USA) containing 2.5 mM probenecid at room temperature in the dark for 1 h. The reagent-loaded cells were transferred to the Flexstation 3 multimode microplate reader (Molecular Devices) equipped with filters (excitation: 485 nm and emission: 520 nm) and an 8-channel pipettor. Fluorescence measurements from each well on the column were taken every 5 s for 4 min. After 30 s the peptide ligand (10 μL) was added with the pipettor and fluorescent intensity was measured for up to 3 min. Then, 5 μL of 1 μM ionomycin (Thermo Fisher Scientific) was added to the cells to obtain a maximum fluorescence reading. Baseline fluorescence was determined by averaging 5 time points from each well prior to treatment with ligand and the resulting response was expressed as a percent increase in fluorescence relative to baseline value. Cells were tested only once with a ligand then discarded. Data were analyzed using Microsoft Excel as described previously, and half-maximal effective concentration (EC50) values of ligands were determined using GraphPad Prism 6 (GraphPad Software, Inc., San Diego, CA).
The binding affinity to the two receptors of these two peptides, QPPLPRY-NH2 (SEQ ID NO: 3) and QPPVPRY-NH2 (SEQ ID NO: 4), was measured based on specific fluorescent intensity of the Sf9 cells expressing receptor A or receptor B in a 96-well plate. A strong fluorescent signal indicated strong binding activity between the peptide ligand and receptor.
To test the effect of varying individual amino acid residues and varying the length of the peptide of SEQ ID NO: 3, different amino acid residues were replaced with alanine (A), or the overall length of the peptide was reduced by sequentially removing amino acid residues from the N-terminal end of SEQ ID NO: 3 (Table 1, SEQ ID NO: 19, SEQ ID NO: 20, SEQ ID NO: 21, SEQ ID NO: 22, SEQ ID NO: 23, SEQ ID NO: 24, SEQ ID NO: 25, SEQ ID NO: 26, SEQ ID NO: 27, SEQ ID NO: 28). Altered peptides were tested and measured for binding activity with the receptors using the same methods as described above.

gray garden slugs [4] = assay: Body weight loss and phenotype after peptide injection into slugs; assay type: in vivo, Deroceras reticulatum; settings: for body weight loss relative to water control: 10 nmol injected, after 72 h
Procedure: The gray garden slugs utilized herein (Deroceras reticulatum) were collected in Corvallis, Oregon, USA, and maintained with carrot and lettuce in a controlled incubator (13° C., 90% RH, 14: 10=light:dark, dim light). To test their effects on slugs, peptides of SEQ ID NO: 3 and SEQ ID NO: 4 were dissolved in 5 μl of purified water (10 nmol) and injected into four gray garden slugs per each treatment. Over 80% of the slug body weight was lost after 72 h when either peptide was injected into the slugs, almost 2-fold higher than the water control (FIG. 3).

[5] = dry conditions (Petri dish), after 24 h
[6] = wet conditions (Petri dish with wet paper towel), within 24 h

Substance	slug mortality (gray garden slugs [1]; [5]) [%]	slug mortality (gray garden slugs [1]; [6])	binding activity / activation of the receptors [3]	also measured
PMSMLRL [SEQ ID NO: 1, synthetic peptide, source D. reticulatum]	40	–	–	–
LPRY [SEQ ID NO: 26]	70	30%	retained the ability to activate the receptors	anti-feeding (gray garden slugs [2]; within 1 h): 73.3%; anti-feeding (gray garden slugs [2]; within 2 h): 48.0%; anti-feeding (gray garden slugs [2]; within 6 h): 23.3%
QPPLPRY [SEQ ID NO: 3, synthetic peptide, source D. reticulatum]	70	No mortalities were observed	–	EC50 [3]: 1.4 nM; body weight loss relative to water control (gray garden slugs [4]): ~2 fold; phenotypic effects after injection (gray garden slugs [4]; injected peptide, FIG. 4): excreted large volumes of milky mucus within 1 minute, exhibited body paralysis, extruding tentacles, weight loss and dehydration
APPLPRY [SEQ ID NO: 19]	90	40%	maintained binding activity and activated the receptors	anti-feeding (gray garden slugs [2]; within 1 h): 93.3%; anti-feeding (gray garden slugs [2]; within 2 h): 91.3%; anti-feeding (gray garden slugs [2]; within 6 h): 80.7%
QAPLPRY [SEQ ID NO: 20]	–	–	maintained binding activity and activated the receptors	–
PPLPRY [SEQ ID NO: 27]	–	–	retained the ability to activate the receptors	–
QPALPRY [SEQ ID NO: 21]	–	–	maintained binding activity and activated the receptors	–
PLPRY [SEQ ID NO: 28]	–	–	retained the ability to activate the receptors	–
QPPVPRY [SEQ ID NO: 4, synthetic peptide, source D. reticulatum]	–	–	–	EC50 [3]: 12.7 nM; body weight loss relative to water control (gray garden slugs [4]): ~2 fold
QPPLPRA [SEQ ID NO: 25]	70	40%	–	anti-feeding (gray garden slugs [2]; within 1 h): 66.7%; anti-feeding (gray garden slugs [2]; within 2 h): 46.7%; anti-feeding (gray garden slugs [2]; within 6 h): 16.7%
QPPAPRY [SEQ ID NO: 22]	–	–	maintained binding activity and activated the receptors	–
